From patent US11713305B2, “Zinc sensors for in vivo imaging of beta-cell function by MRI” (The Board of Regents of the University of Texas System, priority 2017, dated 2023)

Tests used:
[1] = GdL-Zn dissociation constants by fluorescence (ZnAF-2F competition); assay type: binding; conditions: K2 in FIG. 4; Tris buffer; read-out: KD(GdLZn)
Protocol: The procedures reported by Esqueda et al were followed (Esqueda et al., 2009). Solutions containing 1 μM of ZnAF-2F, 0.05 μM ZnCl2 and 100 μM GdL sensors were prepared in TRIS buffer. Aliquots of this solution were 3-fold diluted serially 10 times by addition of a buffered solution containing the same concentration of ZnAF-2F and ZnCl2 but no agent. The fluorescence was measured in triplicate in 96 well plates (100 μL). In a similar manner solutions containing agent, ZnCl2 but no fluorescent probe, were prepared and fluorescence measured by triplicate to account for any signal coming from the agent interacting with Zn^2+. The excitation and emission wavelengths used were 492 and 514 nm, respectively. The Zn dissociation constant was determined by fitting the data to the following equations:
[formula] F is the measured corrected fluorescence. Fmin is the minimal fluorescence observed in the competition binding experiment. Fmax corresponds to the fluorescence in absence of competitor. [GdL]o is the concentration of the zinc sensor chosen. IC50 corresponds to the concentration of competitor that decreases by 50% the % F. K′D is the dissociation constant of the competitor. [FP]o is the total concentration of the fluorescent probe. KD is the dissociation constant of the fluorescent probe and Zn^2+.

HSA [2] = target: T1, HSA (Homo sapiens, UniProt P02768); test: HSA dissociation constant by fluorescence competition with dansylglycine; assay type: binding; conditions: one site competition fitting with dansylglycine; in presence of Zn^2+; read-out: KD(GdLZnHSA)
T1 construct: purchased Sigma-Aldrich
Protocol: The procedures reported by Esqueda et al were followed (2009). A solution containing 5 μM of dansylglycine (or warfarin), 5 μM HSA, 400 μM GdL plus one equivalent of Zn^2+ was prepared in TRIS buffer. Aliquots of this solution were 2-fold diluted serially ten times by addition of a solution which contained the same concentrations of dansylglycine (warfarin) and HSA but no agent. The fluorescence of 100 μL aliquots was measured in triplicate in 96 well plates. In a similar manner solutions containing agent, HSA but no dansylglycine (warfarin), were also included. Four 100 μL aliquots of the solution containing no agent (maximum fluorescent intensity) were also measured in the same 96 well plate, along with four 100 μL aliquots of HSA in buffer.
The excitation and emission wavelengths used for the dansylglycine: 360 and 465 nm, respectively. The excitation and emission wavelengths used for warfarin: 320 and 380 nm, respectively.

HSA [3] = target: T1, HSA; test: Proton relaxation enhancement (PRE) titrations with HSA; assay type: binding; conditions: for r1^c (relaxivity of the bound state): HSA-bound GdL-Zn, from PRE fit; for Kd: fitting proton relaxation enhancement data to equation (1), 20 MHz, 310 K, read-out: KD(GdLZnHSA)
Protocol: Proton relaxation enhancement (PRE) titrations were performed to evaluate the binding of these agents to HSA under conditions where the concentration of HSA was varied while the concentration of GdL and Zn^2+ (1:1) were held constant (FIG. 6). […] These types of complexes only bind to HSA-binding site 2 of subdomain IIIA, so n was assumed=1.
Affinity constants to HSA were assessed by proton relaxation enhancement (PRE) measurements according to published procedures (Martins et al., 2013a; Martins et al., 2013b) The proton relaxation rates at increasing concentrations of protein were measured with a MRS-6 NMR analyzer (20 MHz, 310 K). For the E-titration, the concentrations of GdL complex (0.1 mM) and Zn(II) (0.1 mM) were kept constant, while the protein concentration was varied from 0 to 0.6 mM.

mouse pancreas = test: In vivo MR imaging of glucose stimulated insulin secretion (GSIS) in the mouse pancreas; set-up: species or system C57B1/6 mice; conditions: for T1-weighted MR image enhancement in pancreatic tissues and kidneys: over the first 10-15 min after injection
Description: Both phases of insulin secretion are considered essential, but the early RRP phase that is thought to be the first signal reduced during the development of type 2 diabetes (Komatsu et al., 2013; Hosker et al., 1989). In principle, both phases of insulin secretion should be detectable by MRI if enough sensor is present in the extracellular space during the time-course of these events. Biphasic GSIS was not detected by MRI in previous experiments using the first generation Zn^2+ sensors with a high affinity for Zn^2+ but we hypothesized that GSIS may be more easily detected using these second-generation agents having a much lower affinity for Zn^2+. To test this, dynamic MRI scans were collected after administering either GdL1, GdL2, GdL3 or GdL4 to C57B1/6 mice via a tail vein (0.07 mmol/kg). Nearly simultaneously with agent injection, a bolus (50 μL) of 20% w/v glucose was administered IP to stimulate secretion of insulin.
All animal experiments were performed in accordance with guidelines set by the UT Southwestern Institutional Animal Care and Use Committee (IACUC). Male C57b1/6 mice were fasted for at least 12 hours before imaging experiments. The animals were anaesthetized with isofluorane and catheterized via the tail vein. Once the animals were secured inside a 38 mm volume coil, the pancreas was positioned in the center of the 9.4 T Varian MRI scanner. Two 3D T1-weighted gradient echo pre-injection scans were obtained (TE/TR=1.69/3.34 ms, NEX8, Matrix=128×128 ×128). 70 μl of 20 mM contrast agent were injected i.v. and 50 μl of 20% w/v D-glucose were injected intraperitoneally and consecutive 3D T1-weighted scans were obtained sequentially to monitor signal enhancement in the pancreas. Identification of the pancreas was accomplished by locating the tissues surrounded by the spleen, stomach, and kidneys. A total of 3 animals were scanned per group and images were quantified and analyzed using ImageJ (National Institutes of Health, Bethesda, Md.). The signal intensities from ROIs of the tip of the pancreas were measured before, at every ˜3-4 minutes post D-glucose injection over 30 minutes total. The values were normalized to the signal intensity obtained from a water phantom placed on the mouse abdomen. Contrast enhancement was calculated using the formula
[formula] Statistical analysis was performed by comparing the mean values using a two-tailed t-test. Statistical difference was evaluated using t-scores and p-values at a 95 and 99% confidence level.

T1 sequence (P02768 25-609): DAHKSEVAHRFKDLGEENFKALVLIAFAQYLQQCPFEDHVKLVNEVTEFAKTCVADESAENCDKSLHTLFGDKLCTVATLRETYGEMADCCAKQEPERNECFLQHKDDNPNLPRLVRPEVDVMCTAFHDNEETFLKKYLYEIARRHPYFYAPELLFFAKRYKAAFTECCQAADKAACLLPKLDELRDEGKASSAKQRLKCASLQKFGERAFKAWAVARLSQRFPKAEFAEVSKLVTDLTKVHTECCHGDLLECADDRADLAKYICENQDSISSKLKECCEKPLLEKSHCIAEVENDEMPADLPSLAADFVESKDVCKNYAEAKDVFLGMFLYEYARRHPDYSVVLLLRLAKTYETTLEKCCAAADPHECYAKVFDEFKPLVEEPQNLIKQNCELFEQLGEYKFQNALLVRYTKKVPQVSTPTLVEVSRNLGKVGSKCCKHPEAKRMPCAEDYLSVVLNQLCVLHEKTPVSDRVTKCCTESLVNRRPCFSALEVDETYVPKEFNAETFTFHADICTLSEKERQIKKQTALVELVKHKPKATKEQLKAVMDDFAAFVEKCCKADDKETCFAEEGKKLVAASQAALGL

Row | SMILES | Kd [1] | Kd (HSA [2]) | r1^c (relaxivity of the bound state) (HSA [3]) | Kd (HSA [3]) | T1-weighted MR image enhancement in pancreatic tissues and kidneys (mouse pancreas; 0.07 mmol/kg i.v., glucose IP) | pancreatic response at 3 minutes (FIG. 7A) (mouse pancreas; post-glucose stimulation) | dynamic images: phases of insulin secretion detected (mouse pancreas; 0.07 mmol/kg i.v., glucose IP, n=3) | Area under the curve (AUC) t=11−19 minutes post-glucose stimulation (FIG. 7C) (mouse pancreas; compared to control Gd-HPDO3A and GdL1) | enhancement profile from pancreas ROI normalized to external phantom (FIG. 7B) (mouse pancreas; mouse, in vivo) | pancreatic response at 15 minutes (FIG. 7A) (mouse pancreas; post-glucose stimulation)
1 | O=C(O)CN1CCN(CCC(=O)NCCN(Cc2ccccn2)Cc2ccccn2)CCN(CC(=O)O)CCN(CC(=O)O)CC1 [GdL2] | 0.19 ± 0.005 µM | 37 ± 1 µM | 28 ± 0.3 s⁻¹ mM⁻¹ | 49 ± 7 µM | significant image enhancements | – | – | – | – | –
2 | O=C(O)CN1CCN(CC(=O)O)CCN(CC(=O)NCCN(CCc2ccccn2)Cc2ccccn2)CCN(CC(=O)O)CC1 [GdL4] | 2.35 µM | 42 ± 1 µM | 12 ± 0.3 s⁻¹ mM⁻¹ | 55 ± 12 µM | – | enhance the pancreas | both early phase (3-4 min) and late phase (13-17 min) insulin secretion | improved bi-phasic profile | distinct bi-phasic profile | shows second-phase enhancement
3 | O=C(O)CN1CCN(CCC(=O)NCCN(CCc2ccccn2)Cc2ccccn2)CCN(CC(=O)O)CCN(CC(=O)O)CC1 [GdL5] | 2.57 ± 0.054 µM | 43 ± 1 µM | 12 ± 0.3 s⁻¹ mM⁻¹ | 54 ± 1 µM | – | – | – | – | – | –

Now from value to molecule, other results behind:

Row | Kd [1] | Kd (HSA [2]) | r1^c (relaxivity of the bound state) (HSA [3]) | Kd (HSA [3]) | SMILES | T1-weighted MR image enhancement in pancreatic tissues and kidneys (mouse pancreas; 0.07 mmol/kg i.v., glucose IP) | pancreatic response at 3 minutes (FIG. 7A) (mouse pancreas; post-glucose stimulation) | dynamic images: phases of insulin secretion detected (mouse pancreas; 0.07 mmol/kg i.v., glucose IP, n=3) | Area under the curve (AUC) t=11−19 minutes post-glucose stimulation (FIG. 7C) (mouse pancreas; compared to control Gd-HPDO3A and GdL1) | enhancement profile from pancreas ROI normalized to external phantom (FIG. 7B) (mouse pancreas; mouse, in vivo) | pancreatic response at 15 minutes (FIG. 7A) (mouse pancreas; post-glucose stimulation)
4 | 0.118 µM | 36 ± 1 µM | 20 ± 0.5 s⁻¹ mM⁻¹ | 48 ± 6 µM | O=C(O)CN1CCN(CC(=O)O)CCN(CC(=O)NCCN(Cc2ccccn2)Cc2ccccn2)CCN(CC(=O)O)CC1 [GdL1] | significant image enhancements | enhance the pancreas | – | – | – | –
5 | 0.185 ± 0.005 µM | 37 ± 1 µM | 30 ± 0.6 s⁻¹ mM⁻¹ | 51 ± 7 µM | O=C(O)CCN1CCN(CC(=O)O)CCN(CC(=O)NCCN(Cc2ccccn2)Cc2ccccn2)CCN(CC(=O)O)CC1 [GdL3] | significant image enhancements | – | – | – | – | –
